Reference: patent US11878975B2, “Substituted indole compounds useful as TLR inhibitors” (BRISTOL-MYERS SQUIBB COMPANY, priority 2017, dated 2024)

Assays:
Type in all cases: cell-based
human TLR8 = molecular target: T1, human TLR8 (Homo sapiens, UniProt Q9NR97); test: TLR8 inhibition reporter assay (HEK-Blue cells, SEAP reporter, R848 stimulation); conditions: HEK-Blue cells overexpressing human TLR8, SEAP reporter, R848 15.9 μM
T1 construct: host or cells: HEK-Blue cells
T1 sequence (Q9NR97 27-1041): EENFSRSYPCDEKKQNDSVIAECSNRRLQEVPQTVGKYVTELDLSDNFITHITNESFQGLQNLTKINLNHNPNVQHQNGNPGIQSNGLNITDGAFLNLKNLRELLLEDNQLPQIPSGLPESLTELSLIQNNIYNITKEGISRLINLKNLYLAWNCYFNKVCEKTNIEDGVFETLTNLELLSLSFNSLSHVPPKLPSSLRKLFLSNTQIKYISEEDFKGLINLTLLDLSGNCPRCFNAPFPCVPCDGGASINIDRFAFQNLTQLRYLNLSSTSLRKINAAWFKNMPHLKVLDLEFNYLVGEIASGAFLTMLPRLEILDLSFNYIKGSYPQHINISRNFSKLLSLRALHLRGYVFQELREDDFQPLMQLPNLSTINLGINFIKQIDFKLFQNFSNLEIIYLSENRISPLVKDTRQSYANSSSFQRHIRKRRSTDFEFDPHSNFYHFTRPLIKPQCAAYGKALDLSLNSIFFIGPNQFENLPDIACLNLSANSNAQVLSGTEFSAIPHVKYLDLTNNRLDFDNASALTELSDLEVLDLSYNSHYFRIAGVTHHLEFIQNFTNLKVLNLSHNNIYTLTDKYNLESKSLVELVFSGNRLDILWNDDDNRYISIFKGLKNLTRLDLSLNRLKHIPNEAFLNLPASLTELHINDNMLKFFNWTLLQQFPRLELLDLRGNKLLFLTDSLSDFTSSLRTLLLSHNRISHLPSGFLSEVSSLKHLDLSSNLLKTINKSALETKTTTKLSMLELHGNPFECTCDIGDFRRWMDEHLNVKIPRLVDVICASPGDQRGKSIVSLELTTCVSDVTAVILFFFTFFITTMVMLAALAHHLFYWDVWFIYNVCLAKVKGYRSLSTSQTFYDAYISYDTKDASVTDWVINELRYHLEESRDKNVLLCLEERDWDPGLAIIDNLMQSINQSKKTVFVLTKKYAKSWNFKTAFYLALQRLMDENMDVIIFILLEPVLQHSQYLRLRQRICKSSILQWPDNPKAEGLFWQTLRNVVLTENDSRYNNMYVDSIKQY
Procedure: (§1) TLR7/8/9 Inhibition Reporter Assays
(§2) HEK-Blue™-cells (Invivogen) overexpressing human TLR7, TLR8 or TLR9 receptors were used for screening inhibitors of these receptors using an inducible SEAP (secreted embryonic alkaline phosphatase) reporter gene under the control of the IFN-β minimal promoter fused to five NF-κB and AP-1-binding sites. Briefly, cells are seeded into Greiner 384 well plates (15000 cells per well for TLR7, 20,000 for TLR8 and 25,000 for TLR9) and then treated with test compounds in DMSO to yield a final dose response concentration range of 0.05 nM-50 μM. After a 30 minute compound pre-treatment al room temperature, the cells are then stimulated with a TLR7 ligand (gardiquimod at a final concentration of 7.5 μM), TLR8 ligand (R848 at a final concentration of 15.9 μM) or TLR9 ligand (ODN2006 at a final concentration of 5 nM) to activate NF-κB and AP-1 which induce the production of SEAP. After a 22 hour incubation at 37° C., 5% CO2, SEAP levels are determined with the addition of HEK-Blue™ Detection reagent (Invivogen), a cell culture medium that allows for detection of SEAP, according to manufacturer's specifications. The percent inhibition is determined as the % reduction in the HEK-Blue signal present in wells treated with agonist plus DMSO alone compared to wells treated with a known inhibitor.

human TLR7 = molecular target: T2, human TLR7 (Homo sapiens, UniProt Q9NYK1); test: TLR7 inhibition reporter assay (HEK-Blue cells, SEAP reporter, gardiquimod stimulation); conditions: HEK-Blue cells overexpressing human TLR7, SEAP reporter, gardiquimod 7.5 μM
T2 construct: host or cells: HEK-Blue cells
T2 sequence (Q9NYK1 27-1049): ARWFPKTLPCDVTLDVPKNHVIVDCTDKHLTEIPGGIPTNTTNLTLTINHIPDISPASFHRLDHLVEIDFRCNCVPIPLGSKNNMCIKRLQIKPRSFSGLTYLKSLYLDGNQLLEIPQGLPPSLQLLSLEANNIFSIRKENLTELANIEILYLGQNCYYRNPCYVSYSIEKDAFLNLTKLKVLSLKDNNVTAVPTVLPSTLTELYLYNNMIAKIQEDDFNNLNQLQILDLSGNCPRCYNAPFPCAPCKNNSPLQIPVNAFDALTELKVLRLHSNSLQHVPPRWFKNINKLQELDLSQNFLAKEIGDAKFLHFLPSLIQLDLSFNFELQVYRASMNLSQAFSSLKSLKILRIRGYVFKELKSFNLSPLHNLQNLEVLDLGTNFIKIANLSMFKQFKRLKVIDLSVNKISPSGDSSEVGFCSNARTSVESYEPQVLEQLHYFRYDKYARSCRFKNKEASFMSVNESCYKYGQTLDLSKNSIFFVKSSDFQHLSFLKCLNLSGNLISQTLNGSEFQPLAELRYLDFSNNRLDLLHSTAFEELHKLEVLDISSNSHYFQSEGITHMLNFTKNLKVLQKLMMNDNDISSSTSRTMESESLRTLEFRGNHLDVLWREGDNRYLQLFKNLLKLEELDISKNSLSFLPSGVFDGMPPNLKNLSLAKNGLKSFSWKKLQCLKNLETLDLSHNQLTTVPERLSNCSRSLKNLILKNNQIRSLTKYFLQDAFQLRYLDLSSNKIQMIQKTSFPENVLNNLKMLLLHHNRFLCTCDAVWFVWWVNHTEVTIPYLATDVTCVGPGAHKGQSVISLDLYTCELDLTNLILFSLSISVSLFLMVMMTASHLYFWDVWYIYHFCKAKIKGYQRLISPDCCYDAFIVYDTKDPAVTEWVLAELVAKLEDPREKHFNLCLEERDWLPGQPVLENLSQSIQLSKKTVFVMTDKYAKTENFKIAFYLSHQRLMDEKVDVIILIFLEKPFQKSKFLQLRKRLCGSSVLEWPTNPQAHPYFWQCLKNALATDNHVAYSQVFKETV
Procedure: as §1, §2

human TLR9 = molecular target: T3, human TLR9 (Homo sapiens, UniProt Q9NR96); test: TLR9 inhibition reporter assay (HEK-Blue cells, SEAP reporter, ODN2006 stimulation); conditions: HEK-Blue cells overexpressing human TLR9, SEAP reporter, ODN2006 5 nM
T3 construct: host or cells: HEK-Blue cells
T3 sequence (Q9NR96 26-1032): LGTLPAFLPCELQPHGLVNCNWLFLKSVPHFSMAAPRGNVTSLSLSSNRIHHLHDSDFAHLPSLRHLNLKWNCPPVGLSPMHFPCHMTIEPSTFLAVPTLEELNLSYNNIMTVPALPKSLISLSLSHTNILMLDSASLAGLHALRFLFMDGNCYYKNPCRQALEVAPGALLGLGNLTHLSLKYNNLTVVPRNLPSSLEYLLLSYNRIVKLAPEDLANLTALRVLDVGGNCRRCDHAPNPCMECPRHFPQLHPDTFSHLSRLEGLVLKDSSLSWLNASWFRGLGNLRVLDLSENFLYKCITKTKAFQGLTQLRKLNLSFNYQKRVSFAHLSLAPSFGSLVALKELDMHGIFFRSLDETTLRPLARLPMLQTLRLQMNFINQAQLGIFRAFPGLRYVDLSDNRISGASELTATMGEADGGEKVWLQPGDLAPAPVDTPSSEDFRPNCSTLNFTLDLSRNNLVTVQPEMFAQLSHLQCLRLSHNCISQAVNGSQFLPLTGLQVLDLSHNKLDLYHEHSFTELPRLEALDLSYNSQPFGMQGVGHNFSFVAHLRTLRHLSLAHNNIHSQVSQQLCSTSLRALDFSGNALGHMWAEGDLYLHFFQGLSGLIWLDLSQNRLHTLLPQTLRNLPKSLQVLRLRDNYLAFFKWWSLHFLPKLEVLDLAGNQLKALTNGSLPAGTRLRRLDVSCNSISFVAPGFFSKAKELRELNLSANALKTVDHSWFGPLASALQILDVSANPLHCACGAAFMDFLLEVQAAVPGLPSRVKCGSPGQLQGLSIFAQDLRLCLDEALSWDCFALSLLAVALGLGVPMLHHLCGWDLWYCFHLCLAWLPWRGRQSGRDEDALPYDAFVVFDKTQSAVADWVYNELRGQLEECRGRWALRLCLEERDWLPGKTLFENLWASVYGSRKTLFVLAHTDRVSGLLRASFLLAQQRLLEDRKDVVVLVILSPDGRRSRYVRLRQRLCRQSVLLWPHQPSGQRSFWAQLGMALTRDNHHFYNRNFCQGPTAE
Procedure: as §1, §2

SMILES | IC50 (human TLR8) | IC50 (human TLR7) | IC50 (human TLR9)
CNCC(=O)NC1CCC(c2ccc3[nH]c(-c4cn5ncnc5c(C)c4C)c(C(C)C)c3c2)CC1 (stereo not drawn) [Example 128, N-(4-(2-(7,8-dimethyl-[1,2,4]triazolo[1,5-a]pyridin-6-yl)-3-isopropyl-1H-indol-5-yl)cyclohexyl)-2-(methylamino)acetamide] | 1.4 nM | 0.37 nM | 2250 nM
Cc1cc(-c2[nH]c3ccc(C4CCC5(CC4)NC(=O)NC5=O)cc3c2C(C)C)cc(C)n1 (stereo not drawn) [Example 366, 8-(2-(2,6-dimethylpyridin-4-yl)-3-isopropyl-1H-indol-5-yl)-1,3-diazaspiro[4.5]decane-2,4-dione] | 183 nM | 6 nM | 21700 nM
Cc1c(-c2[nH]c3ccc(C4CCC(N(C)C)CC4)cc3c2C(C)C)cn(C)c(=O)c1C (stereo not drawn) [Example 476] | 2.6 nM | 3 nM | 4770 nM
Cc1cc(-c2[nH]c3ccc([C@@H]4C[C@H]4C(=O)NC4CC5CCN4CC5)cc3c2C(C)C)ccn1 (stereo partly drawn) [Example 460] | 31 nM | 51 nM | 179 nM
Cc1cc(-c2[nH]c3ccc([C@H]4C[C@H]4C(=O)NC4CCNCC4)cc3c2C(C)C)ccn1 [Example 456] | 56 nM | 124 nM | 224 nM
Cc1c(-c2[nH]c3ccc(C4CC(N(C)C(=O)CN(C)C)C4)cc3c2C(C)C)cn2ncnc2c1C (stereo not drawn) [Example 589] | 2.8 nM | 2 nM | 5410 nM
CNC(=O)CN1CC2CC(c3ccc4[nH]c(-c5cn6ncnc6c(C)c5C)c(C(C)C)c4c3)CC2C1 (stereo not drawn) [Example 510] | 12 nM | 2 nM | 20700 nM
COc1cc(-c2[nH]c3ccc(C4CC(N(C)C(=O)CN(C)C)C4)cc3c2C(C)C)cn2ncnc12 (stereo not drawn) [Example 585] | 2.9 nM | 0.55 nM | 2810 nM
Cc1c(-c2[nH]c3ccc(C4CN(CC(N)=O)CCO4)cc3c2C(C)C)cn2ncnc2c1C (stereo not drawn) [Example 319] | 24 nM | 14 nM | > 50000 nM
COc1cc(-c2[nH]c3ccc(C4CCC(NC5(C)COC5)CC4)cc3c2C(C)C)cn2ncnc12 (single isomer, unassigned) [Example 44] | 0.76 nM | 0.21 nM | 1960 nM
CCCN1CC(c2ccc3[nH]c(-c4cn5cnnc5c(C)c4C)c(C(C)C)c3c2)C1 [Example 546] | 5.8 nM | 4 nM | 3870 nM
COc1cc(-c2[nH]c3ccc(C4CCCNC4)cc3c2C(C)C)cn2ncnc12 (single isomer, unassigned) [Example 183] | 7.9 nM | 2 nM | 4630 nM
Cc1cc(-c2[nH]c3ccc(C4CCCN(Cc5c[nH]c(C)n5)C4)cc3c2C(C)C)cc(C)n1 (stereo not drawn) [Example 246] | 16 nM | 10 nM | 56 nM
CCc1c(-c2ccc(OC)c(OC)c2)[nH]c2ccc(CN3CCNCC3)cc12 [Example 390, 2-(3,4-dimethoxyphenyl)-3-ethyl-5-(piperazin-1-ylmethyl)-1H-indole] | 73 nM | 138 nM | 5880 nM
Cc1c(-c2[nH]c3ccc(C4CC5CN(C)CC5C4)cc3c2C(C)C)cn2cnnc2c1C (stereo not drawn) [Example 559] | 9.2 nM | 2 nM | 2120 nM
COc1cc(-c2[nH]c3ccc(C4CCCN(C(=O)CN(C)C)C4)cc3c2C(C)C)cn2ncnc12 (stereo not drawn) [Example 192] | 5.9 nM | 0.49 nM | 2830 nM
CNC(=O)CN1CCOC(c2ccc3[nH]c(-c4cc(C)c5ncnn5c4)c(C(C)C)c3c2)C1 (stereo not drawn) [Example 307] | 47 nM | 8 nM | > 50000 nM
Cc1cc(-c2[nH]c3ccc(C4CCC(N5CCOCC5)CC4)cc3c2C(C)C)cn2ncnc12 (stereo not drawn) [Example 102] | 0.71 nM | 0.23 nM | 1890 nM
COc1cc(-c2[nH]c3ccc(CCC4CN(CC(C)(C)O)C4)cc3c2C(C)C)cn2ncnc12 [Example 441] | 3.8 nM | 2 nM | 2570 nM
Cc1c(-c2[nH]c3ccc(C4CC(NC5COC5)C4)cc3c2C(C)C)cn(C)c(=O)c1C (stereo not drawn) [Example 496] | 4.3 nM | 57 nM | > 50000 nM
COc1cc(-c2[nH]c3ccc(C4CCC(NC(=O)CNC5(C)COC5)CC4)cc3c2C(C)C)cn2ncnc12 (stereo not drawn) [Example 135] | 12 nM | 2 nM | 43800 nM
